Measured values taken from PMC11191317, “PNSC928, a plant-derived compound, specifically disrupts CtBP2-p300 interaction and reduces inflammation in mice with acute respiratory distress syndrome” (Biology Direct, 2024).

How the values were obtained:
ARDS mice = assay: LPS-induced ARDS mouse model; assay type: in vivo
Experimental: All animal experiments were performed following a protocol reviewed and approved by the Institutional Animal Care and Use Committee at Jiangxi Provincial People’s Hospital. We procured C57BL/6 mice from Charles River Laboratories (Beijing, China) and maintained them in specific pathogen-free (SPF) conditions, with a 12-hour light/dark cycle and free access to food and sterile water. We established the ARDS mouse model by administering LPS via tracheal intubation, following an established protocol. Briefly, mice (eight-week-old, half male and half female, 22–25 g) were anesthetized using isoflurane inhalation and randomly classified into Control and ARDS groups. Control mice received 50 µL sterile saline, while ARDS mice were given 25 µg LPS (Sigma-Aldrich, Shanghai, China; #LPS25) in 50 µL sterile saline. Mice were immediately positioned upright and rotated to evenly distribute the LPS within the lungs.
To assess the impact of CtBP2, p300, NF-κB inhibitors, and PNSC928 on ARDS progression, mice were further categorized post-4 h LPS administration into different groups: ARDS, ARDS + MTOB (700 mg/kg; MedChemExpress; Monmouth Junction, NJ; #HY-135,046), ARDS + NSC95397 (1.5 mg/kg; MedChemExpress; #HY-108,543), ARDS + C646 (10 mg/kg; MedChemExpress; #HY-13,823), ARDS + A-485 (50 mg/kg; MedChemExpress; #HY-107,455), ARDS + TPCA1 (10 mg/kg; MedChemExpress; #HY-10,074), ARDS + BOT64 (50 mg/kg; MedChemExpress; #HY-136,741), and ARDS + PNSC928 (20 mg/kg). Mice received these compounds daily for two days. Body weight and temperature were recorded every 24 h. At 48 h post-LPS challenge, mice were sacrificed, and blood samples and lung tissues were harvested.
To collect bronchoalveolar lavage fluid (BALF), the Control, ARDS, and ARDS + PNSC928 groups of mice (n = 10 for each group) were anesthetized with isoflurane inhalation in accordance with institutional guidelines. Mice were placed on their backs, and a small incision was made at the base of the neck to expose the trachea. A flexible catheter was inserted into the trachea and secured with a suture. A syringe filled with sterile phosphate-buffered saline (PBS) (Thermo Fisher, Shanghai, China; #10,010,023) was attached to the catheter, and 1.5 mL of PBS was gently instilled into the right lungs. After allowing the fluid to sit for 10 s, it was aspirated back into the syringe. This process was repeated three times to ensure thorough lavage. The collected BALF was kept on ice in a sterile tube, then centrifuged at 1,000 × g for 10 min at 4 °C to pellet the cells. The supernatant was stored at -80 °C for further analyses.
Whole blood samples were allowed to stand undisturbed at room temperature for 15 min before being centrifuged at 1,000 × g for 10 min. The supernatant serum and BALF were used to measure concentrations of IL-1β, IL-6, IL-15, IL-18, and TNF-α with specific enzyme-linked immunosorbent assay (ELISA) kits as per manufacturer guidelines. The ELISA kits used were: IL-1β (Thermo Fisher; #KMC0011), IL-6 (Thermo Fisher; #KMC0061), IL-15 (Abcam; Shanghai, China; #ab275898), IL-18 (Thermo Fisher; #BMS618-3), and TNF-α (Thermo Fisher; #BMS607-3). Total BALF protein levels were measured using the BCA Protein Assay Kit (Abcam; #ab102536) according to the manufacturer’s protocol.
MPO activity was determined according to a previously established protocol. Briefly, lung tissues (50 mg per mouse) were washed with ice-cold PBS to remove residual blood, then homogenized in a buffer containing 2.5 g of hexadecyltrimethylammonium bromide (Sigma-Aldrich; # H5882) dissolved in 500 mL of PBS. The tissue homogenate was kept on ice for 30 min before centrifugation at 16,000 × g for 10 min at 4 °C. The supernatant was used to measure MPO activity with the Myeloperoxidase Activity Assay Kit (Abcam; #ab105136) according to the manufacturer’s method.
The right upper lobe of the lung was excised, rinsed with PBS, blotted dry, and weighed to determine the “wet” weight. […]

[1] = molecular target: T1, CtBP2-p300^BRD interaction (Mus musculus, UniProt B2RWS6+P56546); assay: AlphaScreen of GST-p300^BRD and His-CtBP2 interaction; assay type: binding
T1 construct: R1 (1-1000 amino acids, aa), R2 (1001–1201 aa), R3 (1202–1810 aa); made in house; host or cells: E. coli BL21
T1 sequence (B2RWS6 1001-1201 limits assumed): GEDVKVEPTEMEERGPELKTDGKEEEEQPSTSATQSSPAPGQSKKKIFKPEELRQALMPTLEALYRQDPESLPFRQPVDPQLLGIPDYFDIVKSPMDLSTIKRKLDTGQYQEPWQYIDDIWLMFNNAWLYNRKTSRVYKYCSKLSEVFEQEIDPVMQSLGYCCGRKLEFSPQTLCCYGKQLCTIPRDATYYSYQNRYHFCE
T1 sequence (P56546 whole entry, the tested form may be a part): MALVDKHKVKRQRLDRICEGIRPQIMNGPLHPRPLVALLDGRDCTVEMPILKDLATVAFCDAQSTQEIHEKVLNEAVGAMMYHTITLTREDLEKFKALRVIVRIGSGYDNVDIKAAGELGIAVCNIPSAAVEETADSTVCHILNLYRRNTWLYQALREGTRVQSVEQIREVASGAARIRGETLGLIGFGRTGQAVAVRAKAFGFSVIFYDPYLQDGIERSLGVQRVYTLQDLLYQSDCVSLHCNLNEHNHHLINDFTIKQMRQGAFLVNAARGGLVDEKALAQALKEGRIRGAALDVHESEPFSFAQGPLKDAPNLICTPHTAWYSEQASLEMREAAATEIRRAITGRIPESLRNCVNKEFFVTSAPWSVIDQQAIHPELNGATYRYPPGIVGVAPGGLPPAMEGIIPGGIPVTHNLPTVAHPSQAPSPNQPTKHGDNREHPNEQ
Experimental: Plasmids pGEX-6P-1-p300^BRD and pET-28a-CtBP2 (Table S2) were transformed into BL21 competent cells. Upon 1 mM isopropyl β-d-1-thiogalactopyranoside (IPTG) induction, GST-p300BRD and His-CtBP2 proteins were isolated via Glutathione Agarose Beads (Thermo Fisher; #16,100) and Ni-NTA Agarose (Thermo Fisher; #R90115), respectively. A comprehensive small molecule library of 4313 compounds derived from various botanical sources, including Lonicera japonica, Forsythia suspense, Houttuynia cordata, Coptis chinensis, Phellodendron, Pulsatilla chinensis, Lygodium japonicum, Plantago asiatica, and Portulaca olerace, was analyzed through mass spectrometry. […] Post addition of 5 µM from each botanical molecule and a 2-hour incubation at 25 °C, the resultant AlphaScreen signals from 96-well plates (PerkinElmer, #6,008,350) were deciphered with an Envision Multilabel Reader (PerkinElmer, #2105-0010).
To probe this interaction, we established an AlphaScreen system that utilized GST-p300^BRD and His-CtBP2, binding to donor and acceptor beads, respectively (Fig. 4C). […] In vitro assays assessed the effects of PNSC928 on the CtBP2-p300^BRD interaction. […] Furthermore, we assessed the impact of combined LPS and PNSC928 treatment on the expression of key molecules in the NF-κB signaling pathway.

[2] = ARDS mice, 25 μg LPS + 20 mg/kg PNSC928

**Q.** What does the source list for `CC(=CCCC1=CCC(C2COC(=O)C2)OC1O)CCC1=C(C)CCCC1(C)C` (stereo not drawn) [PNSC928]?
**A.** Lung wet-to-dry weight ratio (ARDS mice; [2]): significant reduction; MPO activity in lung tissues (ARDS mice; [2]): significant reduction; Survival rate of ARDS mice (ARDS mice; [2]): enhancing the survival rate; Total BALF protein levels (ARDS mice; [2]): significant reduction; Lung expressions of IL-1B, IL-6, IL-15, IL-18, TNFA, and IFNG (RT-qPCR) (ARDS mice; ARDS mice, PNSC928 20 mg/kg): significantly reduced; Lung expressions of S100A8, ICAM1, SPP1, FBN1, and SPSB1 (RT-qPCR) (ARDS mice; ARDS mice, PNSC928 20 mg/kg): without notably altering; Serum and BALF concentrations of pro-inflammatory cytokines (ELISA) (ARDS mice; ARDS mice, PNSC928 20 mg/kg from 4 h post-LPS, daily for two days): significantly abated; Serum and BALF pro-inflammatory cytokine levels in comparison to control mice (ARDS mice; ARDS mice, PNSC928 20 mg/kg from 4 h post-LPS, elevated vs control mice): 1.3–1.5 fold; Decrease in body weights and respiratory distress (pO2) caused by LPS (ARDS mice; ARDS mice, PNSC928 20 mg/kg, measured at 0, 1, and 2 days): alleviated; Lung damage by histological examination (H&E, histological scores) (ARDS mice; LPS-challenged mice, PNSC928 20 mg/kg): recovered lung damage; Alpha signal ([1]; high-throughput screening, 5 µM compound, signal reduced from 17,500): 489; IC50 ([1]; read-out: IC50 disrupting CtBP2-p300^BRD interaction): 23.6 ± 3.1 µM
